Earlier results, collected in US20140044685A1, “NUTRITIONAL COMPOSITIONS HAVING ALPHA-HICA AND CITRULLINE” (NESTEC S.A., priority 2011, published 2014).

What was measured:
[1] = piglet stressed with LPS
[2] = system: intestinal mammalian target of rapamycin (mTOR); conditions: piglet stressed with LPS; leading to increased protein synthesis and anti-inflammatory responses
[3] = malnourished aged animals

Structure (SMILES) | crypt depth [1] | villous height [1] | phosphorylation of intestinal mammalian target of rapamycin (mTOR) [2] | anabolic effect [3]
O=C(O)CCC(=O)C(=O)O [AKG, α-ketoglutarate] | reduced | increased | increased | –
NC(=O)NCCC[C@H](N)C(=O)O [Citrulline, citrulline] | – | – | – | anabolic effect
